Data from article PMC13492380, “Dissecting Structural and Functional Determinants of Microtubules Stabilization through Guided Chemical Modulation” (Journal of Medicinal Chemistry, 2026).

System: taxane site of assembled cross-linked MTs
Assay: Displacement of FTX2 from the taxane site (fluorescence polarization)
Format: binding, calf
Details: for incremental binding free energy (ΔΔG), PTX-to-derivative modification: 35 °C; for ΔH 0 app: Van't Hoff analysis, 26–42 °C; for ΔG 0 app at 26 °C: from binding constant, −RT Ln Ka; for ΔS 0 app: slope of ΔG0app versus T
Experimental: Purified calf brain tubulin and chemicals were obtained as previously described. Tau-mCherry was expressed and purified as described previously. Human Kif5B-EGFP (amino acids 1-905), containing a C terminal fluorescent-tag followed by a 3C protease cleavage site and a 6 × His-tag was expressed and purified as in with some modifications. Prior to purification, cells were resuspended in 1:1 ratio of lysis buffer (30 mM HEPES pH 7.5, 300 mM NaCl, 0.5 mM ATP, 5% glycerol, 20 mM imidazole, […]) supplemented with 1× Protease inhibitor cocktail and benzonase to the final concentration of 25 units/ml. Cells were homogenized by repeated pipetting. Cells were lysed by spinning for 45 min at 40,000 rpm in 45 Ti fixed-angle rotor (Beckman Coulter) at 4 °C. The supernatant was incubated with pre-equilibrated HisPUR NiNTA agarose resin (Thermo Fisher Scientific) for 1 h in a tightly closed gravity-flow column (Thermo Fisher Scientific) at 4 °C by slowly rotating. Subsequently, the resin was washed once lysis buffer and then with buffer B (30 mM HEPES pH 7.5, 300 mM NaCl, 0.5 mM ATP, 5% glycerol, 30 mM imidazole, […]). The protein was eluted from the resin after an overnight cleavage of the 6 × His-tag with 3C HRV protease in lysis buffer at 4 °C. The eluted protein was further purified via size exclusion chromatography on Superdex 200 10/300 GL column equilibrated in exclusion buffer (30 mM HEPES pH 7.5, 300 mM NaCl, 0.5 mM ATP, 5% glycerol, […]). Peak fractions were analyzed via SDS-PAGE, pooled and the protein was concentrated with Amicon Ultra-15 Centrifugal Filter tubes (Millipore). Purified proteins were aliquoted, snap-frozen in liquid N2, and stored at −80 °C.
The equilibrium binding constant of 1a and 1b to the taxane site of assembled MTs were determined by the displacement of FTX2 from the taxane site in cross-linked MTs. The displacement isotherm of each ligand was measured at least three times in two different plates with a fluorescence polarization microplate reader, as described. A mixture of 50 nM taxane binding sites and 50 nM FTX2 in GAB buffer was sampled in a 96-well plate. […] After mixing the samples for 10 min by shaking at 250 rpm, they were incubated 20 min at the desired temperatures (26, 35 or 42 °C) and their anisotropies were measured using a Spark Tecan plater reader in fluorescence polarization at emission of 535 nm and excitation of 485 nm. A sample containing 50 nM taxane binding sites was employed as blank, and a 50 nM solution of FTX2 in GAB, 0.1 mM GTP was employed as anisotropy standard. G factor was calculated as a mean over several cells in different conditions. The molar saturation fraction, X b , of the probe for each competitor concentration is calculated from the polarization values measured, P. Measurements of the polarization of FTX2 completely displaced (P 0 ) and, in absence of the competitor ligand (P sat), are required for data processing. The binding of FTX2 in the presence of the competitor ligand (X b = (P–P 0 /P sat – P 0 ) · X sat) was calculated and best fitted to the equilibrium binding constant of the competitor assuming unitary stoichiometry and the binding constant of the reference ligand (FTX2) with a PC program (Equigra v5).
Once the equilibrium binding constants are measured at different temperatures, the standard free energy of binding at a given temperature is calculated from the binding constant as ΔG 0app = −RT Ln K a, the standard enthalpy of the binding reaction is calculated from the representation of Ln K a versus 1/T (Van’t Hoff representation), and the slope of this representation multiplied by −R is equal to −ΔH 0app. The standard entropy of binding to ΔS 0app is calculated from the slope of the linear regression of ΔG 0app versus T.

CC(=O)OC1C(=O)C2(C)C(OC(=O)CCCCC(=O)OC3CCc4ccccc43)CC3OCC3(OC(C)=O)C2C(OC(=O)c2ccccc2)C2(O)CC(OC(=O)C(O)C(NC(=O)c3ccccc3)c3ccccc3)C(C)=C1C2(C)C (centres unmarked) [1a, 7-O-(6″-O-(2‴,3‴-Dihydroinden-1‴-yl)hexanedioyl) Paclitaxel]
fold lower binding constant than PTX: ~100 fold
incremental binding free energy (ΔΔG), PTX-to-derivative modification: 9.8 kJ mol^–1
ΔH 0 app: –24 ± 4 kJ mol^–1
ΔG 0 app at 26 °C: –31.9 ± 0.1 kJ mol^–1
ΔS 0 app: –27 ± 5 J mol ^aK^–1

COc1ccc2c(c1)CC(NC(=O)CCCCCCCC(=O)OC1CC3OCC3(OC(C)=O)C3C(OC(=O)c4ccccc4)C4(O)CC(OC(=O)C(O)C(NC(=O)c5ccccc5)c5ccccc5)C(C)=C(C(OC(C)=O)C(=O)C13C)C4(C)C)CC2 [1b, 7-O-((S)-9″-(7‴-Methoxy-1‴,2‴,3‴,4‴-tetrahydronaphthalen-2‴-yl)amino) −9″-oxononanoyl) Paclitaxel]
fold lower binding constant than PTX: ~100 fold
incremental binding free energy (ΔΔG), PTX-to-derivative modification: 12.8 kJ mol^–1
ΔH 0 app: –35 ± 7 kJ mol^–1
ΔG 0 app at 26 °C: –28.9 ± 0.3 kJ mol^–1
ΔS 0 app: 20 ± 5 J mol ^aK^–1

CC(=O)O[C@H]1C(=O)[C@]2(C)[C@@H](OC(=O)[C@H](C)NC(=O)c3ccc(-c4c5cc(F)c(=O)cc-5oc5cc(O)c(F)cc45)c(C(=O)O)c3)C[C@H]3OC[C@@]3(OC(C)=O)[C@H]2[C@H](OC(=O)c2ccccc2)[C@]2(O)C[C@H](OC(=O)[C@H](O)[C@@H](NC(=O)c3ccccc3)c3ccccc3)C(C)=C1C2(C)C [FTX2, Flutax2]
incremental binding free energy (ΔΔG), PTX-to-derivative modification: −0.3 kJ mol^–1
